Like-named read-outs stand apart in the source and are kept apart here.
Assays:
E. coli HM22 = experiment: IC50 of killing, individual treatments vs co-treatment; assay type: cell-based; conditions: Escherichia coli, read-out: IC50 (concentration required to kill 50% of the population)
[1] = tested on: E. coli HM22 normal cells; experiment: Killing of normal (exponential phase) cells, CFU by drop plate; assay type: cell-based, Escherichia coli; conditions: for normal cells killed: 100 μg/mL, 1 h in PBS
purified 70S ribosome = conditions: read-out: IC50 (concentration of the antibiotic needed to inhibit 50% of the purified 70S ribosome); cited from earlier work
AcrAB-TolC mutants = experiment: Killing of efflux mutants compared with wild-type (in words); assay type: cell-based, Escherichia coli; conditions: normal cells of ΔacrA, ΔacrB, ΔtolC
[2] = tested on: E. coli HM22 persister cells; experiment: Concurrent treatment with ampicillin in LB compared with ampicillin alone; assay type: cell-based, Escherichia coli; conditions: concurrent 100 μg/mL ampicillin and 100 μg/mL test antibiotic
Text: E. coli HM22 was used as the model strain in this test because it contains the hipA7 allele that leads to high-level persistence.

[3] = Validation of chloroform extraction (partition coefficient); conditions: concentration in chloroform phase over aqueous phase
Description: To validate if chloroform is effective in extracting the antibiotics after cell lysis, a validation test was performed. Briefly, 100 μL of antibiotic solution was mixed with 100 μL chloroform in a microcentrifuge tube by vortexing. Then the solution was centrifuged for 5 min at 5,000×g. […] Each phase was collected separately and evaporated overnight in a desiccator. […] The samples were then transferred to a 96-well plate where absorbance readings were measured using an Epoch 2 Microplate Spectrophotometer (BioTek, Winooski, VT, USA). […] The concentrations were then calculated by comparing with a standard curve of absorbance with known concentrations of corresponding antibiotic.

[4] = tested on: E. coli HM22 persister cells; assay type: cell-based, Escherichia coli; conditions: for persister cells killed: 1 h in PBS, relative to untreated
[5] = tested on: E. coli HM22 persister cells; experiment: Growth and CFU of treated persister cells during wake-up in LB
Description: At each designated time point, 1 mL of the cell culture was collected, washed with PBS, and centrifuged at a speed of 13,000 rpm for 3 min. Treated persister cells and untreated controls were washed and resuspended with LB medium supplemented with DPA, and incubated at 37° C. with shaking at 200 rpm. At each designated time point, samples were collected to quantify intracellular antibiotic concentration as described above and to determine growth by measuring OD600.

[6] = tested on: E. coli HM22 normal and persister cells; conditions: for intracellular accumulation, persister cells relative to normal cells: treated at 100 μg/mL, reporter bioassay
[7] = tested on: E. coli JW4364 (ΔacrA mutant); experiment: Killing of normal cells of efflux mutant ΔacrA; conditions: 100 μg/mL
Description: (§1) The mid-exponential phase cultures were collected by centrifugation at 13,000 rpm for 3 min at room temperature. The amount of cells used for each treatment was adjusted to OD600 of 0.5 in 500 μL. They were then washed with PBS (pH 7.4) three times. […] Relative viability was normalized by the untreated population. Each experimental condition was tested with five biological repeats.

[8] = tested on: E. coli JW5536 (ΔacrB mutant); experiment: Killing of normal cells of efflux mutant ΔacrB; conditions: 100 μg/mL
Description: as §1

[9] = tested on: E. coli HM22 persister cells; experiment: LIVE/DEAD staining of persister cells during treatment and wake-up; assay type: cell-based, Escherichia coli; conditions: 100 μg/mL treated, washed
Description: . The present invention thus hypothesized that the killing effects took place during persister wake-up when the external antibiotic was withdrawn (after the treated cells were plated on antibiotic-free agar plates in this test). […] . […] .
Treated and untreated samples were washed once with PBS (pH 7.4). Cells were then immediately labeled with LIVE/DEAD BacLight bacterial viability kit (Life Technologies Inc., Carlsbad, CA) with a final concentration of 7.5 μM SYTO9 and 30 μM propidium iodide. After 15 min of staining, the cells were pelleted to remove the staining solution, re-suspended in PBS and vortexed briefly. Labeled cells were then imaged on microscope slides using an Axio Imager M1 fluorescence microscope (Axio Imager M1 fluorescence microscope, Carl Zeiss Inc., Berlin, Germany) with an Orca-Flash 4.0 LT camera (Hamamatsu Photonics, Hamamatsu City, Japan). At least 5 random spots were imaged for each sample. The mean gray value intensity was used to calculate the mean intensity generated from each channel (green and red). Each condition was tested with three biological replicates and 5 images were randomly taken from each sample.

[10] = tested on: E. coli HM22 normal cells; conditions: 100 μM CCCP 10 min, then 100 μg/mL minocycline 1 h
Description: Carbonyl cyanide m-chlorophenylhydrazone (CCCP) was used to depotentiate the membrane of E. coli normal cells and thus, mimic the change in membrane potential of persister cells. CCCP dissipates the PMF by allowing protons to leak across the membrane and thus inactivate efflux pumps. […] An overnight culture of E. coli HM22 was sub-cultured in LB medium supplemented with DPA with a starting OD600 of 0.05 until OD600 reached 0.3-0.45. The mid-exponential culture was collected by centrifugation at a speed of 13,000 rpm for 3 min at room temperature. […] Each experimental condition was tested with three biological replicates.

[11] = tested on: E. coli JW5503 (ΔtolC mutant); experiment: Killing of normal cells of efflux mutant ΔtolC; conditions: 100 μg/mL
Description: as §1

[12] = after treatment at 100 μg/mL for 1 h

CC1(C)S[C@@H]2[C@H](NC(=O)[C@H](N)c3ccccc3)C(=O)N2[C@H]1C(=O)O [ampicillin] showed an IC50 (E. coli HM22) of 1 µg/mL.

In the case of CN(C)[C@@H]1C(O)=C(C(N)=O)C(=O)[C@@]2(O)C(O)=C3C(=O)c4c(O)c(NC(=O)CN5CCCC5)cc(F)c4C[C@H]3C[C@@H]12 [eravacycline], the normal cells killed [1] is given as 63.5±15.8%, the “killing of normal cells (in words)” value ([1]; concentrations below 100 μg/mL (0-50 μg/mL)) is given as “no significant killing” and the IC50 (purified 70S ribosome) is given as 200 ± 100 nM. The “killing of efflux mutants compared to the wild-type strain (in words)” value (AcrAB-TolC mutants) was “more killing”, the “additional killing compared to 100 μg/mL ampicillin alone” value [2] was 99.9% and the “Partition Coefficient” value [3] was 3.0 ± 0.3. The persister cells killed ([4]; 30 μg/mL) was 50.9±7.7%, the persister cells killed ([4]; 50 μg/mL) was 98.2±0.5% and the “killing of persister cells in logs” value ([4]; 100 μg/mL) was 3 log. For the same compound, the persister cells killed ([4]; 100 μg/mL) was 99.9±0.03%, the “regrowth of treated persister cells after removal of extracellular antibiotic and adding LB (in words)” value ([5]; OD600 / growth) was “unable to resume growth” and the “decrease of CFU of treated persister cells after removal of extracellular antibiotic and addition of nutrient” value ([5]; over 8 hours) was 97.1±0.9%. The “intracellular concentration in normal cells” value ([6]; after treatment at 100 μg/mL) was 24.2 ± 1.7 µg/mL, the “intracellular concentration in persister cells” value ([6]; after treatment at 100 μg/mL) was 92.1 ± 4.4 µg/mL and the “intracellular accumulation, persister cells relative to normal cells” value [6] was 3.8 times. For the same compound, the IC50 (E. coli HM22) was 4.8 µg/mL.

With CN(C)c1ccc(O)c2c1C[C@H]1C[C@H]3[C@H](N(C)C)C(O)=C(C(N)=O)C(=O)[C@@]3(O)C(O)=C1C2=O [minocycline] the “normal cells of ΔacrA killed” value [7] was 98.6±0.3%, the “additional killing compared to 100 μg/mL ampicillin alone” value [2] was 68% and the persister cells killed ([4]; 30 μg/mL) was 47.8±5.3%. For the same compound, the persister cells killed ([4]; 50 μg/mL) was 59.0±6.0%, the persister cells killed ([4]; 100 μg/mL) was 70.8±5.9% and the “normal cells of ΔacrB killed” value [8] was 99.9±0.01%. The “red/total fluorescence of treated persister cells” value ([9]; 0 min after adding LB) was 20.2±3.3%, the “red/total fluorescence of treated persister cells” value ([9]; 30 min incubation with added LB) was 37.9±3.0% and the “normal cells killed after CCCP pretreatment” value [10] was 95.9±2.5%. The “normal cells of ΔtolC killed” value [11] was 99.7±0.03%, the “intracellular concentration in persister cells after wake-up” value ([6]; 4 h after washing the cells and adding LB medium) was 26.8 ± 3.2 pg/mL and the “intracellular concentration in persister cells” value ([6]; after treatment at 100 μg/mL) was 26.9 ± 0.7 µg/mL. For the same compound, the “intracellular concentration in normal cells” value [6, 12] was 1.04e-05 ± 2.2e-06 µg/mL and the “intracellular concentration in persister cells” value [6, 12] was 2.64e-05 ± 3.5e-06 µg/mL.

With CO[C@H]1/C=C/O[C@@]2(C)Oc3c(C)c([O-])c4c(O)c(cc(O)c4c3C2=O)NC(=O)/C(C)=C\C=C\[C@H](C)[C@H](O)[C@@H](C)[C@@H](O)[C@@H](C)[C@H](OC(C)=O)[C@@H]1C.[Na+] [rifamycin SV] the normal cells killed [1] was “did not kill”, the persister cells killed ([4]; 100 μg/mL) was 75.0±5.12% and the “intracellular concentration in normal cells” value ([6]; after treatment at 100 μg/mL) was 4.3 ± 0.9 µg/mL. For the same compound, the “intracellular concentration in persister cells” value ([6]; after treatment at 100 μg/mL) was 14.0 ± 4.5 µg/mL and the “intracellular accumulation, persister cells relative to normal cells” value [6] was 3.2 times.

In the case of CN(C)[C@@H]1C(O)=C(C(N)=O)C(=O)[C@@]2(O)C(O)=C3C(=O)c4c(O)cccc4[C@@](C)(O)[C@H]3C[C@@H]12 [tetracycline], the “intracellular concentration in normal cells” value [6, 12] is reported as 5.5e-06 ± 1e-07 µg/mL and the “intracellular concentration in persister cells” value [6, 12] is reported as 1.6e-06 ± 8e-07 µg/mL.

Reference: patent publication US20250034614A1, “PERSISTER CONTROL BY LEVERAGING DORMANCY ASSOCIATED REDUCTION OF ANTIBIOTIC EFFLUX” (Syracuse University, priority 2021, published 2025)
